According to article PMC9643456, “Matching amino acids membrane preference profile to improve activity of antimicrobial peptides” (Communications Biology, 2022):
Values after ≈ are worked out from the molar mass of the structure shown. Square brackets hold non-standard residues; d marks the D form. Ends that are not written are not given here. Peptide text beside a SMILES is read from it. Trp(2,5,7-tBu3) = CC(C)(C)c1cc(C(C)(C)C)c2[nH]c(C(C)(C)C)c(C[C@H](N)C(=O)O)c2c1; Trp(5-OH) = N[C@@H](Cc1c[nH]c2ccc(O)cc12)C(=O)O

Tests used:
Experiment in all cases: microbe, parasite or virus in culture
MDR S. aureus = settings: CLSI broth microdilution; CAMHB with 50 mg/L Ca2+, 10 mg/L Mg2+; 5 × 10^5 CFU/ml; 18 h 37 °C; triplicate; strain KCCM 40510
From the text: (§1) MDR Pseudomonas aeruginosa (CCARM 2180) was purchased from the Culture Collection of Antimicrobial Resistance Microbes (Seoul, Republic of Korea). MDR Acinetobacter baumannii (ATCC BAA-1605) and MDR Enterococcus faecalis (ATCC 51575) were purchased from the American Type Culture Collection (Manassas, VA, USA). MDR Staphylococcus aureus (KCCM 40510) was purchased from the Korean Culture Center of Microorganisms (Seoul, Republic of Korea). S. aureus (KCTC 1621) was purchased from the Korean Collection for Type Cultures. A. baumannii (KCCM 40203) was purchased from the Korean Culture Center of Microorganisms (Seoul, Republic of Korea).
(§2) To assess antimicrobial activity, the MIC50 and MIC90 were measured using broth microdilution following CLSI guidelines. […] Each experiment was performed in triplicate. Meropenem (Sigma, Darmstadt, Germany) and colistin were used as control antibiotics. Cation-adjusted Mueller–Hinton broth (CAMHB) (Becton, Dickinson and Company, Franklin Lakes, USA) with supplied calcium (50 mg/L) and magnesium (10 mg/L) was used for the CLSI-test condition. Bacteria in midlog phase and peptides were separately diluted in CAMHB. The bacteria and peptide solutions were then mixed in 96-well polyethylene plates (SPL, Gyeonggi-do, Korea) and incubated for 18 h at 37 °C. The final concentration for bacteria was 5 × 10^5 CFU/ml. […] The MIC was defined to be the lowest concentration of peptide without visible turbidity by comparing with control antibiotics with the unaided eye. […] Each experiment was performed in triplicate. MICs in albumin and acetic acid solutions were measured using the same protocol but with 0.2% bovine serum albumin (Bovogen, Keilor, Australia), 0.01% acetic acid (Merck, New Jersey, USA), and CAMHB with both calcium and magnesium. In addition, MICs used in the antibiotic resistance acquisition test, the outer–inner membrane permeation test, and the transmembrane potential test and for FE-SEM were individually determined. The final bacterial concentrations used were as follows: for resistance acquisition, optical density (OD) 0.01; for outer–inner membrane permeability assays (LB), OD 0.1; for the transmembrane potential test, 1 × 10^8 CFU/ml (OD 0.171); […]. Inhibitory activity unidentifiable by direct observation was determined by counting the CFUs. Each experiment was performed at least twice.

MDR E. faecalis = settings: CLSI broth microdilution; CAMHB with 50 mg/L Ca2+, 10 mg/L Mg2+; 5 × 10^5 CFU/ml; 18 h 37 °C; triplicate; strain ATCC 51575
From the text: as §1, §2

MDR A. baumannii = settings: CLSI broth microdilution; CAMHB with 50 mg/L Ca2+, 10 mg/L Mg2+; 5 × 10^5 CFU/ml; 18 h 37 °C; triplicate; strain ATCC BAA-1605
From the text: as §1, §2

MDR P. aeruginosa = settings: CLSI broth microdilution; CAMHB with 50 mg/L Ca2+, 10 mg/L Mg2+; 5 × 10^5 CFU/ml; 18 h 37 °C; no visible turbidity; triplicate; strain CCARM 2180
From the text: as §1, §2

Q: For `CC[C@H](C)[C@H](NC(=O)[C@H](Cc1c[nH]c2ccccc12)NC(=O)[C@H](CC(C)C)NC(=O)[C@H](CC(C)C)NC(=O)[C@@H](N)Cc1c(C(C)(C)C)[nH]c2c(C(C)(C)C)cc(C(C)(C)C)cc12)C(=O)N[C@@H](C)C(=O)N[C@@H](CC(C)C)C(=O)N[C@@H](CCCNC(=N)N)C(=O)N[C@@H](CCCCN)C(=O)N[C@@H](CCCCN)C(N)=O` [WtCopW] (H-[Trp(2,5,7-tBu3)]LLWIALRKK-NH2), which “Minimum inhibitory concentrations, MDR S. aureus” value (MDR S. aureus) is on record?
A: Its value is 5 µM (≈ 7.47 µg/mL).

Q: What about the “Minimum inhibitory concentrations, MDR E. faecalis” value (MDR E. faecalis) of the same compound?
A: The value was 20 µM (≈ 29.9 µg/mL).

Q: What about the “Minimum inhibitory concentrations, MDR A. baumannii” value (MDR A. baumannii) of the same compound?
A: Its value is 10 µM (≈ 14.9 µg/mL).

Q: What about the “Minimum inhibitory concentrations, MDR P. aeruginosa” value (MDR P. aeruginosa) of the same compound?
A: Its value is > 20 µM.

Q: Which results are given for HLLWIALRKK-NH2 [HCopW]?
A: Minimum inhibitory concentrations, MDR S. aureus (MDR S. aureus): >20 µM; Minimum inhibitory concentrations, MDR E. faecalis (MDR E. faecalis): >20 µM; Minimum inhibitory concentrations, MDR A. baumannii (MDR A. baumannii): >20 µM; Minimum inhibitory concentrations, MDR P. aeruginosa (MDR P. aeruginosa): >20 µM

Q: What does the source list for `CC[C@@H](C)[C@@H](NC(=O)[C@@H](Cc1c[nH]c2ccccc12)NC(=O)[C@@H](Cc1ccc(O)cc1)NC(=O)[C@@H](CC(C)C)NC(=O)[C@H](N)Cc1c[nH]c2ccccc12)C(=O)NCC(=O)N[C@H](CC(C)C)C(=O)N[C@H](CCCNC(=N)N)C(=O)N[C@H](CCCCN)C(=O)N[C@H](CCCCN)C(=O)N[C@H](CCCNC(=N)N)C(N)=O` [WCopWY] (H-[dW][dL][dY][dW][dI]G[dL][dR][dK][dK][dR]-NH2)?
A: Minimum inhibitory concentrations, MDR S. aureus (MDR S. aureus): 10 µM (≈ 15.2 µg/mL); Minimum inhibitory concentrations, MDR E. faecalis (MDR E. faecalis): 2.5 µM (≈ 3.79 µg/mL); Minimum inhibitory concentrations, MDR A. baumannii (MDR A. baumannii): 1.25 µM (≈ 1.9 µg/mL); Minimum inhibitory concentrations, MDR P. aeruginosa (MDR P. aeruginosa): 20 µM (≈ 30.4 µg/mL)

Q: SLLWIALRKK-NH2 [SCopW] was tested. Which “Minimum inhibitory concentrations, MDR S. aureus” value (MDR S. aureus) did it give?
A: Its value is >20 µM.

Q: And the “Minimum inhibitory concentrations, MDR E. faecalis” value (MDR E. faecalis)?
A: The value was >20 µM.

Q: And the “Minimum inhibitory concentrations, MDR A. baumannii” value (MDR A. baumannii)?
A: The value was >20 µM.

Q: And the “Minimum inhibitory concentrations, MDR P. aeruginosa” value (MDR P. aeruginosa)?
A: The value was >20 µM.

Q: For `CC[C@@H](C)[C@@H](NC(=O)[C@@H](Cc1c[nH]c2ccccc12)NC(=O)[C@@H](CCCCN)NC(=O)[C@@H](CC(C)C)NC(=O)[C@H](N)Cc1c[nH]c2ccccc12)C(=O)NCC(=O)N[C@H](CC(C)C)C(=O)N[C@H](CCCNC(=N)N)C(=O)N[C@H](CCCCN)C(=O)N[C@H](CCCCN)C(=O)N[C@H](CCCNC(=N)N)C(N)=O` [WCopWK] (H-[dW][dL][dK][dW][dI]G[dL][dR][dK][dK][dR]-NH2), which “Minimum inhibitory concentrations, MDR S. aureus” value (MDR S. aureus) is on record?
A: Its value is >20 µM.

Q: And the “Minimum inhibitory concentrations, MDR E. faecalis” value (MDR E. faecalis)?
A: Its value is >20 µM.

Q: What about the “Minimum inhibitory concentrations, MDR A. baumannii” value (MDR A. baumannii) of the same compound?
A: The value was >20 µM.

Q: And the “Minimum inhibitory concentrations, MDR P. aeruginosa” value (MDR P. aeruginosa)?
A: Its value is >20 µM.

Q: For `CC[C@@H](C)[C@@H](NC(=O)[C@@H](Cc1c[nH]c2ccccc12)NC(=O)[C@@H](Cc1ccccc1)NC(=O)[C@@H](CC(C)C)NC(=O)[C@H](N)Cc1c[nH]c2ccccc12)C(=O)NCC(=O)N[C@H](CC(C)C)C(=O)N[C@H](CCCNC(=N)N)C(=O)N[C@H](CCCCN)C(=O)N[C@H](CCCCN)C(=O)N[C@H](CCCNC(=N)N)C(N)=O` [WCopWF] (H-[dW][dL][dF][dW][dI]G[dL][dR][dK][dK][dR]-NH2), which “Minimum inhibitory concentrations, MDR S. aureus” value (MDR S. aureus) is on record?
A: Its value is 2.5 µM (≈ 3.75 µg/mL).

Q: And the “Minimum inhibitory concentrations, MDR E. faecalis” value (MDR E. faecalis)?
A: Its value is 2.5 µM (≈ 3.75 µg/mL).

Q: What about the “Minimum inhibitory concentrations, MDR A. baumannii” value (MDR A. baumannii) of the same compound?
A: Its value is 1.25 µM (≈ 1.88 µg/mL).

Q: And the “Minimum inhibitory concentrations, MDR P. aeruginosa” value (MDR P. aeruginosa)?
A: Its value is 10 µM (≈ 15 µg/mL).

Q: For `CC[C@H](C)[C@H](NC(=O)[C@H](Cc1c[nH]c2ccc(O)cc12)NC(=O)[C@H](CC(C)C)NC(=O)[C@H](CC(C)C)NC(=O)[C@@H](N)Cc1c[nH]c2ccc(O)cc12)C(=O)N[C@@H](C)C(=O)N[C@@H](CC(C)C)C(=O)N[C@@H](CCCNC(=N)N)C(=O)N[C@@H](CCCCN)C(=O)N[C@@H](CCCCN)C(N)=O` [WhCopW] (H-[Trp(5-OH)]LL[Trp(5-OH)]IALRKK-NH2), which “Minimum inhibitory concentrations, MDR S. aureus” value (MDR S. aureus) is on record?
A: The value was 5 µM (≈ 6.79 µg/mL).

Q: And the “Minimum inhibitory concentrations, MDR E. faecalis” value (MDR E. faecalis)?
A: Its value is > 20 µM.

Q: And the “Minimum inhibitory concentrations, MDR A. baumannii” value (MDR A. baumannii)?
A: The value was > 20 µM.

Q: What about the “Minimum inhibitory concentrations, MDR P. aeruginosa” value (MDR P. aeruginosa) of the same compound?
A: The value was > 20 µM.
